Results taken from ChEMBL document CHEMBL1142341, “Vinyl ester-based cyclic peptide proteasome inhibitors” (Bioorg Med Chem Lett, 2008).
Residues, ends and D or L forms follow the SMILES beside them. *: point of attachment. X1 = CCOC(=O)/C=C/[C@H](CC(C)C)N*

Assay: Half life in human plasma
Type: ADME, cell-free

SMILES	half-life [h]
CCOC(=O)/C=C/[C@H](CC(C)C)NC(=O)C[C@@H]1NC(=O)[C@H](CO)NC(=O)[C@H](C(C)C)NC(=O)[C@H](Cc2ccccc2)NC1=O (cyclo(D(X1)FVS))	> 6
CCOC(=O)/C=C/[C@H](CC(C)C)NC(=O)C[C@@H]1NC(=O)[C@H](CC(C)C)NC(=O)[C@H](CC(C)C)NC(=O)[C@H](Cc2ccccc2)NC1=O (cyclo(D(X1)FLL))	> 6
CCOC(=O)/C=C/[C@H](CC(C)C)NC(=O)CC[C@@H]1NC(=O)[C@H](CC(C)C)NC(=O)[C@H](CC(C)C)NC(=O)[C@H](Cc2ccccc2)NC1=O (cyclo(E(X1)FLL))	> 6
